Consider 25 compounds from patent US9012431B2, “Boron-containing small molecules as anti-inflammatory agents” (Anacor Pharmaceuticals, Inc., priority 2008, dated 2015).

The test system of one assay is TNF-α. Briefly: Cytokine assay, TNF-α release from PBMC. Type of assay: cell-based. To be noted: 1 μg/mL LPS; for IC50: Homo sapiens, PBMC, 24 h, supernatant at 24 hours; for inhibition at 10 µM: human PBMC, 24 hours. The procedure: (§1) The ability of the compounds described herein to inhibit pro-inflammatory cytokines or phsophodiesterases were tested.
(§2) Frozen human peripheral blood mononucleocytes (PBMC) were thawed and centrifuged. Cryopreservation media was aspirated off of the cell pellet, and the cells were resuspended in fresh culture media (CM) comprising RPMI 1640 and 10% FBS in 96 well plates. Test article was dissolved in DMSO to form a 10 mM sample (DMSO, 100%). The 10 mM samples were diluted to 100 μM in CM (DMSO, 1%), then further diluted to 10, 1, 0.1, 0.01 μM in 200 μL of CM (n=3). […] IL-23 was assayed using a commercial ELISA kit (R&D Systems).

A further assay concerns IL-2. Nature of the assay: Cytokine assay, IL-2 release from PBMC. Type of assay: cell-based. To be noted: human PBMC, 20 ug/mL PHA; for IC50: supernatant at 24 hours; for inhibition at 10 µM: 24 hours. The procedure:
as §1, §2

The subject of a further assay is IFN-γ. Briefly: Cytokine assay, IFN-γ release from PBMC. To be noted: human PBMC, 20 ug/mL PHA; for IC50: supernatant at 24 hours; for inhibition at 10 µM: 24 hours. Type of assay: cell-based. The procedure: as §1, §2
Another assay has as its system IL-5. Nature of the assay: Cytokine assay, IL-5 release from PBMC. Type of assay: cell-based. To be noted: human PBMC, 20 ug/mL PHA; for IC50: supernatant at 48 hours; for inhibition at 10 µM: 48 hours. Here is the method: as §1, §2
The next assay concerns IL-10. Nature of the assay: Cytokine assay, IL-10 release from PBMC. Type of assay: cell-based. To be noted: human PBMC, 20 ug/mL PHA; for IC50: supernatant at 48 hours; for inhibition at 10 µM: 48 hours. Here is the method: as §1, §2
For assay [1], the system named is T1, PDE4 partially purified from human U-937 myeloid leukemia cells.
T1 construct: PDE4 partially purified from human U-937 myeloid leukemia cells was used
Nature of the assay: PDE4 Assay (enzyme from U-937 cells, [3H]cAMP). Type of assay: biochemical. The following applies: PDE4 from U-937 cells, Tris buffer pH 7.5, 20 minutes at 25° C. Here is the method:
Test article and/or vehicle was incubated with 0.2 mg enzyme and 1 mM cAMP containing 0.01 mM [3H]cAMP in Tris buffer pH 7.5 for 20 minutes at 25° C. The reaction was terminated by boiling for 2 minutes and the resulting AMP is converted to adenosine by addition of 10 mg/ml snake venom nucleotidase and further incubation at 37° C. for 10 minutes. Unhydrolyzed cAMP is bound to AG1-X2 resin, and remaining [3H]Adenosine in the aqueous phase is quantitated by scintillation counting.

A word on the IC50: it is the concentration needed to halve the response being measured. For the compound `N#Cc1ccc(Oc2ccc3c(c2)COB3O)cc1C(=O)O` [D8, 5-(3-Carboxy-4-cyanophenoxy)-1,3-dihydro-1-hydroxy-2,1-benzoxaborole], the IC50 with TNF-α is > 10 µM; in the assay on IL-2 it was 1 to 4 µM; in the assay with IFN-γ, > 10 µM; with IL-5 it was > 10 µM; in the assay with IL-10, > 10 µM.

As for `N#Cc1ccc(Oc2ccc3c(c2)COB3O)c(OCC(=O)O)c1` [D17, 5-[2-(Carboxymethoxy)-4-cyanophenoxy]-1,3-dihydro-1-hydroxy-2,1-benzoxaborole], the half-inhibitory concentration (IC50) in the assay on TNF-α is 4 to 10 µM; with IL-2, > 10 µM; in the assay on IFN-γ, > 10 µM; in assay [1] it was < 1 µM.

Take `O=C(O)c1ccc(Oc2ccc3c(c2)COB3O)c(O)c1` [D18, 5-(4-Carboxy-2-hydroxyphenoxy)-1,3-dihydro-1-hydroxy-2,1-benzoxaborole]: the concentration for half-maximal inhibition (IC50) in the assay with TNF-α, with IL-2 and in the assay with IFN-γ was > 10 µM in each case.

Turning to `CCOC(=O)c1ccc(Oc2ccc3c(c2)COB3O)c(O)c1` [D19, 5-(4-Ethoxycarbonyl-2-hydroxyphenoxy)-1,3-dihydro-1-hydroxy-2,1-benzoxaborole], the 50% inhibitory concentration (IC50) was 1 to 4 µM in the assay with TNF-α, 1 to 4 µM in the assay with IL-2, 1 to 4 µM in the assay with IFN-γ and < 1 µM in assay [1].

Turning to `CCOC(=O)c1ccc(Oc2ccc3c(c2)COB3O)c(OC)c1` [D20, 5-(4-Ethoxycarbonyl-2-methoxyphenoxy)-1,3-dihydro-1-hydroxy-2,1-benzoxaborole], the IC50 (in the assay with TNF-α; in the assay on IL-2; in the assay with IFN-γ; in assay [1]) was < 1 µM throughout.

In the case of `CCOC(=O)c1ccc(Oc2ccc3c(c2)COB3O)c(OC2CCCC2)c1` [D21, 5-[4-Ethoxycarbonyl-2-(cyclopentyloxy)phenoxy]-1,3-dihydro-1-hydroxy-2,1-benzoxaborole], the concentration for half-maximal inhibition (IC50) in the assay with TNF-α was 1 to 4 µM; with IL-2, < 1 µM; in the assay with IFN-γ it was < 1 µM; in assay [1], < 1 µM.

In turn, `N#Cc1ccc(Oc2ccc3c(c2)COB3O)c(C=O)c1` [D23, 5-(4-Cyano-2-formylphenoxy)-1,3-dihydro-1-hydroxy-2,1-benzoxaborole] showed a half-maximal inhibitory concentration (IC50) in the assay on TNF-α of 4 to 10 µM.

As a reminder, the inhibition is the drop in the measured response relative to a control, in per cent. Read a low inhibition as a weak effect. For the compound `N#Cc1ccc(Oc2ccc3c(c2)COB3O)cc1OCC(=O)O` [D39, [2-Cyano-5-(1-hydroxy-1,3-dihydro-benzo[c][1,2]oxaborol-5-yloxy)-phenoxy]-acetic acid], the inhibition at 10 µM in the assay with TNF-α was 30 to 60%; with IL-2 it was 30 to 60%; in the assay with IFN-γ, 30 to 60%; in the assay on IL-5, < 30%.

Turning to `CC1CCN(C(=O)COc2cc(Oc3ccc4c(c3)COB4O)ccc2C#N)CC1` [D42, 4-(1-Hydroxy-1,3-dihydro-benzo[c][1,2]oxaborol-5-yloxy)-2-[2-(4-methyl-piperidin-1-yl)-2-oxo-ethoxy]-benzonitrile], the inhibition at 10 µM in the assay on TNF-α is 60 to 90%; in the assay on IL-2 it was 90 to 100%; with IFN-γ it was 90 to 100%; in the assay with IL-5, 60 to 90%; in the assay on IL-10, 60 to 90%.

Take `C[NH+]1CCN(C(=O)COc2cc(Oc3ccc4c(c3)COB4O)ccc2C#N)CC1` [D43, 4-(1-Hydroxy-1,3-dihydro-benzo[c][1,2]oxaborol-5-yloxy)-2-[2-(4-methyl-piperazin-1-yl)-2-oxo-ethoxy]-benzonitrile hexafluorophosphate]: the inhibition at 10 µM with TNF-α was < 30%; with IL-2 it was 90 to 100%; in the assay on IFN-γ, 60 to 90%; in the assay on IL-5, 60 to 90%; with IL-10 it was 60 to 90%.

As for `O=C(O)c1cnc(Oc2ccc3c(c2)COB3O)c(Cl)c1` [D49, 5-Chloro-6-(1-hydroxy-1,3-dihydrobenzo[c][1,2]oxaborol-5-yloxy)nicotinic acid], the concentration for half-maximal inhibition (IC50) lay within 4 to 10 µM with TNF-α, 4 to 10 µM with IL-2, 4 to 10 µM with IFN-γ and 1 to 4 µM in assay [1].

Turning to `OCc1ccc(Oc2ccc3c(c2)COB3O)nc1` [D64, 5-(5-(Hydroxymethyl)pyridin-2-yloxy)benzo[c][1,2]oxaborol-1 (3H)-ol], the IC50 in the assay on TNF-α was 1 to 4 µM; with IL-2, 4 to 10 µM; in the assay on IFN-γ it was 4 to 10 µM; in the assay on IL-5 it was > 10 µM; with IL-10 it was 4 to 10 µM.

For the compound `CC(C)(C)/[N+]([O-])=C/c1ccc(Oc2ccc3c(c2)COB3O)nc1` [D70, (Z)—N-((6-(1-hydroxy-1,3-dihydrobenzo[c][1,2]oxaborol-5-yloxy)pyridin-3-yl)methylene)-2-methylpropan-2-amine oxide], the half-maximal inhibitory concentration (IC50) with TNF-α was 1 to 4 µM; in the assay on IL-2, < 1 µM; in the assay on IFN-γ it was 1 to 4 µM; in assay [1], 1 to 4 µM.

Turning to `CN(C)CCOC(=O)c1ccc(Oc2ccc3c(c2)COB3O)cc1` [D75, 4-(1-Hydroxy-1,3-dihydro-benzo[c][1,2]oxaborol-5-yloxy)-benzoic acid 2-dimethylamino-ethyl ester], the half-inhibitory concentration (IC50) is 1 to 4 µM in the assay with TNF-α; 1 to 4 µM in the assay on IL-2; 4 to 10 µM with IFN-γ; 4 to 10 µM in the assay on IL-5; > 10 µM in the assay on IL-10.

In the case of `O=C(NCCO)c1ccc(Oc2ccc3c(c2)COB3O)cc1` [D77, 4-(1-Hydroxy-1,3-dihydro-benzo[c][1,2]oxaborol-5-yloxy)-N-(2-hydroxy-ethyl)-benzamide], the IC50 in the assay with TNF-α is > 10 µM; in the assay with IL-2 it was 1 to 4 µM; in the assay on IFN-γ, 1 to 4 µM; with IL-5 it was > 10 µM; with IL-10, 4 to 10 µM.

On to `CN1CCN(C(=O)c2ccc(Oc3ccc4c(c3)COB4O)cc2)CC1` [D79, [4-(1-Hydroxy-1,3-dihydro-benzo[c][1,2]oxaborol-5-yloxy)-phenyl]-(4-methyl-piperazin-1-yl)-methanone], for which the IC50 in the assay with TNF-α, with IL-2, with IFN-γ, with IL-5 and in the assay with IL-10 was > 10 µM in each case.

Regarding `CC(=O)N1CCN(C(=O)c2ccc(Oc3ccc4c(c3)COB4O)cc2)CC1` [D80, 1-{4-[4-(1-Hydroxy-1,3-dihydro-benzo[c][1,2]oxaborol-5-yloxy)-benzoyl]-piperazin-1-yl}-ethanone], the half-maximal inhibitory concentration (IC50) in the assay on TNF-α, in the assay with IL-2, in the assay on IFN-γ, with IL-5 and in the assay on IL-10 was > 10 µM throughout.

As for `CN(C)CCNC(=O)c1ccc(Oc2ccc3c(c2)COB3O)cc1` [D81, N-(2-Dimethylamino-ethyl)-4-(1-hydroxy-1,3-dihydro-benzo[c][1,2]oxaborol-5-yloxy)-benzamide], the IC50 was > 10 µM with TNF-α; > 10 µM with IL-2; > 10 µM with IFN-γ; 4 to 10 µM in the assay with IL-5; > 10 µM with IL-10.

Regarding `N#Cc1ccc(Oc2ccc3c(c2)COB3O)nc1O` [D108, 2-hydroxy-6-(1-hydroxy-1,3-dihydrobenzo[c][1,2]oxaborol-5-yloxy)nicotinonitrile], the IC50 in assay [1] lay in the range of 4 to 10 µM.

For the compound `COc1nc(Oc2ccc3c(c2F)COB3O)ccc1C#N` [D114, 6-(4-Fluoro-1-hydroxy-1,3-dihydrobenzo[c][1,2]oxaborol-5-yloxy)-2-methoxynicotinonitrile], the IC50 is < 1 µM in the assay with TNF-α; < 1 µM in the assay on IL-2; < 1 µM in the assay with IFN-γ; < 1 µM in the assay on IL-5; > 10 µM in the assay on IL-10.

Consider `CC(C)(C)Nc1nc(Oc2ccc3c(c2)COB3O)ccc1C#N` [D129, 2-tert-butylamino-6-(1-hydroxy-1,3-dihydro-benzo[c][1,2]oxaborol-5-yloxy)-nicotinonitrile], for which the IC50 (in the assay with TNF-α; in assay [1]) was < 1 µM each time.

For the compound `N#Cc1ccc(Oc2ccc3c(c2)COB3O)c(OC2CCCC2)c1` [D133, 3-(cyclopentyloxy)-4-(1-hydroxy-1,3-dihydrobenzo[c][1,2]oxaborol-5-yloxy)benzonitrile], the half-inhibitory concentration (IC50) (in the assay on TNF-α; in assay [1]) was < 1 µM throughout.

On to `N#Cc1ccc(Oc2ccc3c(c2)COB3O)c(OCC2CC2)c1` [D134, 3-(cyclopropylmethoxy)-4-(1-hydroxy-1,3-dihydrobenzo[c][1,2]oxaborol-5-yloxy)benzonitrile], for which the half-maximal inhibitory concentration (IC50) (with TNF-α; in assay [1]) was < 1 µM throughout.

In the case of `N#Cc1ccc(Oc2ccc3c(c2)COB3O)c(OCC2CCCC2)c1` [D135, 3-(cyclopentylmethoxy)-4-(1-hydroxy-1,3-dihydrobenzo[c][1,2]oxaborol-5-yloxy)benzonitrile], the IC50 (in the assay on TNF-α; in assay [1]) was < 1 µM each time.

With `CC(C)COc1nc(Oc2ccc3c(c2)COB3O)ccc1C#N` [D136, 6-(1-Hydroxy-1,3-dihydro-benzo[c][1,2]oxaborol-5-yloxy)-2-isobutoxy-nicotinonitrile], the IC50 (with TNF-α; in assay [1]) was < 1 µM each time.
